Assay results: ChEMBL document CHEMBL3098055 (Bioorg Med Chem Lett, 2014)
Bridge positions count the residues as written; N and C are the ends. Square brackets hold non-standard residues; d marks the D form. Peptide text beside a SMILES is read from it. AllylGly = C=CC[C@H](N)C(=O)O

Key:
Assay type in all cases: cell-based
[1] = target: Somatostatin receptor type 3 (Homo sapiens, UniProt P32745); test: Displacement of [125I]-somatostatin from human SSTR3 expressed in CHO-K1 cells
[2] = target: Somatostatin receptor type 5 (Homo sapiens, UniProt P35346); test: Displacement of [125I]-somatostatin from human SSTR5 expressed in CHO-K1 cells
[3] = target: Somatostatin receptor type 2 (Homo sapiens, UniProt P30874); test: Displacement of [125I]-somatostatin from human SSTR2 expressed in CHO-K1 cells
[4] = target: Somatostatin receptor type 1 (Homo sapiens, UniProt P30872); test: Displacement of [125I]-somatostatin from human SSTR1 expressed in CHO-K1 cells
[5] = target: Somatostatin receptor type 4 (Homo sapiens, UniProt P31391); test: Displacement of [125I]-somatostatin from human SSTR4 expressed in CHO-K1 cells
Somatostatin receptor type 4, sequence (P31391 whole entry): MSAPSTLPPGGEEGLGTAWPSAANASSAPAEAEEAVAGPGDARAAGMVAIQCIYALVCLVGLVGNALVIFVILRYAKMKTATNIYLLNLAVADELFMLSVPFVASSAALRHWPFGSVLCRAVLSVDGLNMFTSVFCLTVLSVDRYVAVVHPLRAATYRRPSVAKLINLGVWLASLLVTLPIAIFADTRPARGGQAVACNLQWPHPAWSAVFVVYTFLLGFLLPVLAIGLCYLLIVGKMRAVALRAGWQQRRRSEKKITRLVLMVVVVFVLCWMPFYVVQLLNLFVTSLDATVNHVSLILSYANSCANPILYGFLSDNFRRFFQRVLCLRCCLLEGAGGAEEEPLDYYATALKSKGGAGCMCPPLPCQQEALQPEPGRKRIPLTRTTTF

Somatostatin receptor type 5, sequence (P35346 whole entry): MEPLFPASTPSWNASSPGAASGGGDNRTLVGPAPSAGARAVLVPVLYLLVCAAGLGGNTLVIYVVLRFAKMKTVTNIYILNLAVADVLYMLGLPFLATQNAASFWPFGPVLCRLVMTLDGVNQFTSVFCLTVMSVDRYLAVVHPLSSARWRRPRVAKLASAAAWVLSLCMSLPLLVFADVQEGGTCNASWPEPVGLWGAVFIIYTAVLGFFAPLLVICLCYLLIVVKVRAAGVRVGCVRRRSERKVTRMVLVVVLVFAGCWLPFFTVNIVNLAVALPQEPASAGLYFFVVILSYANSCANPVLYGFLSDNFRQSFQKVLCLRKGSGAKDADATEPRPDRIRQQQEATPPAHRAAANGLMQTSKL
Somatostatin receptor type 1, sequence (P30872 whole entry): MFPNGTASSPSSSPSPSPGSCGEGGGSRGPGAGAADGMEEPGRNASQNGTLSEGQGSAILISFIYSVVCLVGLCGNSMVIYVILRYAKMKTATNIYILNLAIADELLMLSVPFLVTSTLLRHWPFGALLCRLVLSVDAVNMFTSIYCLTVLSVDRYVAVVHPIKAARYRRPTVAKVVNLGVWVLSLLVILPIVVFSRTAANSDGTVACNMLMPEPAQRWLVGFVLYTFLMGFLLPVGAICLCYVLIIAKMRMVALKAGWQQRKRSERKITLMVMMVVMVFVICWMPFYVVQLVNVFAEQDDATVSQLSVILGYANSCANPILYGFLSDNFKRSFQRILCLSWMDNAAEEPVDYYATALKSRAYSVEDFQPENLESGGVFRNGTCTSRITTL
Somatostatin receptor type 2, sequence (P30874 whole entry): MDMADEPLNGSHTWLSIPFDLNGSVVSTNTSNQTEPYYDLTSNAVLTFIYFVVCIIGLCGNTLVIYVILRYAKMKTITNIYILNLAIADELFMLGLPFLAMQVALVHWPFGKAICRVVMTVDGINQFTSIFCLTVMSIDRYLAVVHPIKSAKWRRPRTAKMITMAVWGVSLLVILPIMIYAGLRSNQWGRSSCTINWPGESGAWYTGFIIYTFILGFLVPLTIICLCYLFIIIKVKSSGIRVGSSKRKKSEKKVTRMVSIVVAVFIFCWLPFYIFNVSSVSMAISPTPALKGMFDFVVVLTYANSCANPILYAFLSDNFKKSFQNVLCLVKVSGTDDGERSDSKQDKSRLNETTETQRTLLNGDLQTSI
Somatostatin receptor type 3, sequence (P32745 whole entry): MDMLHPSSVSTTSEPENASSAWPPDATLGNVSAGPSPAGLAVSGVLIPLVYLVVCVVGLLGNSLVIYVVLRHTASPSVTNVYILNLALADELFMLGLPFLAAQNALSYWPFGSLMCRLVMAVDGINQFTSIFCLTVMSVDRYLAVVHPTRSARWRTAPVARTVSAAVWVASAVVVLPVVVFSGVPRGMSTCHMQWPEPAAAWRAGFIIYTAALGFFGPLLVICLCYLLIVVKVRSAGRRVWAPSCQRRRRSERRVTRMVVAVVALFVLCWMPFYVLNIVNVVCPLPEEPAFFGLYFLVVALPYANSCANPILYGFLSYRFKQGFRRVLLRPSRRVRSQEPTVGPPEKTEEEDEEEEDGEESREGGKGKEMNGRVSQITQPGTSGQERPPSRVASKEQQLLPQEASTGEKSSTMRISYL

Ki [1]: 4.24 nM
Ki [2]: 0.2 nM
Ki [3]: 0.41 nM
Ki [4]: 0.31 nM
Ki [5]: 1.77 nM
Compound: C[C@H](N)C(=O)NCC(=O)N[C@H]1C/C=C\C[C@@H](C(N)=O)NC(=O)[C@H](CO)NC(=O)[C@H]([C@@H](C)O)NC(=O)[C@H](Cc2ccccc2)NC(=O)[C@H]([C@@H](C)O)NC(=O)[C@H](CCCCN)NC(=O)[C@H](Cc2c[nH]c3ccccc23)NC(=O)[C@H](Cc2ccccc2)NC(=O)[C@H](Cc2ccccc2)NC(=O)[C@H](CC(N)=O)NC(=O)[C@H](CCCCN)NC1=O (H-AG[AllylGly]KNFFWKTFTS[AllylGly]-NH2; staple (Z) 3-14)
